Experimental data reported in patent publication US12600709B2, “Nonpeptide somatostatin type 5 receptor agonists and uses thereof” (Crinetics Pharmaceuticals, Inc., priority 2019, dated 2026).
Like-named read-outs stand apart in the source and are kept apart here.

What was measured:
[1] = molecular target: T1, human somatostatin receptor subtype 5 (Homo sapiens, UniProt P35346); test: cAMP assay for SST5R (inhibition of cAMP in CHO-K1 cells); assay type: cell-based; settings: for EC50: inhibition of cAMP via human SST5 receptor, read-out: SST5 potency
T1 construct: expressed in transfected cells
T1 sequence (P35346 whole entry): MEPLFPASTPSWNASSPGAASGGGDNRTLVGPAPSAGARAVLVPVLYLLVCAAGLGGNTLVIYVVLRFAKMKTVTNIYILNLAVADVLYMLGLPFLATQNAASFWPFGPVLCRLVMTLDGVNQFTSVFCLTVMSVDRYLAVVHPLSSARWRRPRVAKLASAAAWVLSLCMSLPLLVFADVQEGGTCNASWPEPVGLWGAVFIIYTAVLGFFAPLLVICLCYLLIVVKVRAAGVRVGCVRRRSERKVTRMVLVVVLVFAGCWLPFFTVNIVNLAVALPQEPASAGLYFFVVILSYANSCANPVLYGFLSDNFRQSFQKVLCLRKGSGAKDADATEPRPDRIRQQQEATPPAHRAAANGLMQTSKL
Outline: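 CHO-K1 cells stably expressing human SSTR5 were treated 20 min at 37 °C with compounds plus 1.6 μM NKH477 in HBSS, 0.5 mM HEPES pH 7.4, 0.1% BSA, 0.2 mM IBMX. Lysate cAMP measured by HTRF against a standard curve; EC50 from cAMP-versus-concentration plots.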

[2] = molecular target: T2, human somatostatin receptor subtype 2 (Homo sapiens, UniProt P30874); test: cAMP assay for SST2R (inhibition of cAMP in CHO-K1 cells); assay type: cell-based; settings: Table B; inhibition of cAMP via human SST2 receptor; read-out: SST2 potency
T2 construct: expressed in transfected cells
T2 sequence (P30874 whole entry): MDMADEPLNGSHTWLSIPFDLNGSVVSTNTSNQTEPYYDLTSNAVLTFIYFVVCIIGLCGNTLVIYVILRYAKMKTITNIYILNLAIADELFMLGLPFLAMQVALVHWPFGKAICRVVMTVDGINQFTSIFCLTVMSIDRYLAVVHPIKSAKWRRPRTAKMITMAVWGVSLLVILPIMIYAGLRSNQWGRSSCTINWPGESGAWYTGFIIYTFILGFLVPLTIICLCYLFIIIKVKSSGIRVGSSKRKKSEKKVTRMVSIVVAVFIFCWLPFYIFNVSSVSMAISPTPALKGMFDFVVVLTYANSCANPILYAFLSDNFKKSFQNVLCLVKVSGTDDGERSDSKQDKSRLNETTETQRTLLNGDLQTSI
Outline: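 Agonism read as decrease in NKH477 (1.6 μM)-stimulated cAMP: compounds applied 20 min, 37° C, with 0.2 mM IBMX, to CHO-K1 stably expressing human SSTR2. cAMP quantified in lysates by time-resolved fluorescence (HTRF kit, 1-24 h RT), standard-curve regression, then EC50.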

[3] = Table B, class symbols, SST5 receptor over SST2 receptor

| Compound | EC50 ([1]; Table A) [nM] | Fold selectivity for SST5 vs SST2 [1, 3] | EC50 ([1]; Table B) [nM] | EC50 [2] [nM] | Fold selectivity for SST5 vs SST2 ([1]; Table B, numeric values for comparison compounds) |
| --- | --- | --- | --- | --- | --- |
| COc1cc(-c2c(C#N)ncc(C(=O)NC3CCCCC3)c2N2CC[C@](C)(N)C2)ccn1 [1-252, 4-[(3S)-3-amino-3-methylpyrrolidin-1-yl]-2-cyano-N-cyclohexyl-2′-methoxy-[3,4′-bipyridine]-5-carboxamide] | < 10 | +++ (+++=>500) | < 10 | 100 to 1000 | – |
| C[C@H](NC(=O)c1cncc(-c2cc(F)cc(F)c2)c1N1CC[C@](C)(N)C1)C1CC1 [1-41, 4-[(3S)-3-amino-3-methylpyrrolidin-1-yl]-N-[(1S)-1-cyclopropylethyl]-5-(3,5-difluorophenyl)pyridine-3-carboxamide] | < 10 | ++ (++=100 to 499) | < 10 | 10 to 100 | – |
| CCOC(=O)CCOc1ncc(C(=O)NC2CCC(F)(F)CC2)c(N2CC[C@H](N)C2)c1-c1cc(F)cc(F)c1 [1-201, ethyl 3-({4-[(3S)-3-aminopyrrolidin-1-yl]-5-[(4,4-difluorocyclohexyl)carbamoyl]-3-(3,5-difluorophenyl)pyridin-2-yl}oxy)propanoate] | < 10 | +++ (+++=>500) | < 10 | > 1000 | – |
| Cc1cc(F)cc(-c2cncc(C(=O)NC3CCc4ccccc43)c2N2CC[C@](C)(N)C2)c1 (stereo partly drawn) [1-17, 4-[(3S)-3-amino-3-methylpyrrolidin-1-yl]-N-(2,3-dihydro-1H-inden-1-yl)-5-(3-fluoro-5-methylphenyl)pyridine-3-carboxamide] | < 10 | ++ (++=100 to 499) | < 10 | 100 to 1000 | – |
| Cc1cc(C)cc(NC(=O)c2cncc(-c3cc(C)cc(C)c3)c2N2CCC(CN)C2)c1 (stereo not shown) [4-(3-(aminomethyl)pyrrolidin-1-yl)-N,5-bis(3,5-dimethylphenyl)nicotinamide, reference compound] | – | – | < 10 | < 10 | 0.084 |
| C[C@]1(N)CCN(c2c(C(=O)NC3CCCCC3)cnc(C(F)(F)F)c2-c2cc(F)cc(F)c2)C1 [1-210, 4-[(3S)-3-amino-3-methylpyrrolidin-1-yl]-N-cyclohexyl-5-(3,5-difluorophenyl)-6-(trifluoromethyl)pyridine-3-carboxamide] | < 10 | +++ (+++=>500) | < 10 | 10 to 100 | – |
| C[C@]1(N)CCN(c2c(C(=O)NC3CCCCCC3)ccnc2-c2cc(F)cc(F)c2)C1 [3-6, 3-[(3S)-3-amino-3-methylpyrrolidin-1-yl]-N-cycloheptyl-2-(3,5-difluorophenyl)pyridine-4-carboxamide] | < 10 | +++ (+++=>500) | < 10 | > 1000 | – |
| COc1ncc(C(=O)N[C@@H](C)C2CC2)c(N2CC[C@](C)(N)C2)c1-c1cc(F)cc(C#N)c1 [1-153, 4-[(3S)-3-amino-3-methylpyrrolidin-1-yl]-5-(3-cyano-5-fluorophenyl)-N-[(1S)-1-cyclopropylethyl]-6-methoxypyridine-3-carboxamide] | < 10 | +++ (+++=>500) | < 10 | 100 to 1000 | – |
| C[C@]1(N)CCN(c2c(C(=O)N3C4CC5CC(C4)CC3C5)cncc2-c2nc3cccc(Cl)c3[nH]2)C1 [2-45, (3S)-1-(3-{2-azatricyclo[3.3.1.1^3,7]decane-2-carbonyl}-5-(7-chloro-1H-1,3-benzodiazol-2-yl)pyridin-4-yl)-3-methylpyrrolidin-3-amine] | < 10 | ++ (++=100 to 499) | < 10 | 100 to 1000 | – |
| C[C@H](NC(=O)c1cnc(C(F)(F)F)c(-c2cc(F)cc(F)c2)c1N1CC[C@H](N)C1)C1CC1 [1-199, 4-[(3S)-3-aminopyrrolidin-1-yl]-N-[(1S)-1-cyclopropylethyl]-5-(3,5-difluorophenyl)-6-(trifluoromethyl)pyridine-3-carboxamide] | < 10 | +++ (+++=>500) | < 10 | 100 to 1000 | – |
| Cc1ncc(C(=O)NC2CCC(F)(F)CC2)c(N2CC[C@H](N)C2)c1-c1cc(F)cc(Cl)c1 [1-277, 4-[(3S)-3-aminopyrrolidin-1-yl]-5-(3-chloro-5-fluorophenyl)-N-(4,4-difluorocyclohexyl)-6-methylpyridine-3-carboxamide] | < 10 | +++ (+++=>500) | < 10 | > 1000 | – |
| C[C@H](NC(=O)c1cnc(C(F)(F)F)c(-c2cc(Cl)cc(Cl)c2)c1N1CC[C@H](N)C1)C1CC1 [1-215, 4-[(3S)-3-aminopyrrolidin-1-yl]-N-[(1S)-1-cyclopropylethyl]-5-(3,5-dichlorophenyl)-6-(trifluoromethyl)pyridine-3-carboxamide] | < 10 | +++ (+++=>500) | < 10 | 100 to 1000 | – |
| COc1ncc(C(=O)N[C@@H](C)C2CC2)c(N2CC[C@](C)(N)C2)c1-c1ccnc(C(F)(F)F)c1 [1-166, 4-[(3S)-3-amino-3-methylpyrrolidin-1-yl]-N-[(1S)-1-cyclopropylethyl]-2-methoxy-2′-(trifluoromethyl)-[3,4′-bipyridine]-5-carboxamide] | < 10 | +++ (+++=>500) | < 10 | > 1000 | – |
| C[C@H](NC(=O)c1cnc(C#N)c(-c2ccnc(C(F)(F)F)c2)c1N1CC[C@](C)(N)C1)C(F)(F)F [1-169, 4-[(3S)-3-amino-3-methylpyrrolidin-1-yl]-2-cyano-2′-(trifluoromethyl)-N-[(2S)-1,1,1-trifluoropropan-2-yl]-[3,4′-bipyridine]-5-carboxamide] | < 10 | +++ (+++=>500) | < 10 | 100 to 1000 | – |
| C[C@]1(N)CCN(c2c(C(=O)NCc3ccon3)cnc(C#N)c2-c2cc(F)cc(Cl)c2)C1 [1-244, 4-[(3S)-3-amino-3-methylpyrrolidin-1-yl]-5-(3-chloro-5-fluorophenyl)-6-cyano-N-[(1,2-oxazol-3-yl)methyl]pyridine-3-carboxamide] | < 10 | +++ (+++=>500) | < 10 | 100 to 1000 | – |
| CCC(CC)CNC(=O)c1cncc(-c2cc(F)cc(F)c2)c1N1CC[C@](C)(N)C1 [1-58, 4-[(3S)-3-amino-3-methylpyrrolidin-1-yl]-5-(3,5-difluorophenyl)-N-(2-ethylbutyl)pyridine-3-carboxamide] | < 10 | +++ (+++=>500) | < 10 | 100 to 1000 | – |
| CCC(CC)NC(=O)c1cnc(C#N)c(-c2ccnc(OC)c2)c1N1CC[C@](C)(N)C1 [1-253, 4-[(3S)-3-amino-3-methylpyrrolidin-1-yl]-2-cyano-2′-methoxy-N-(pentan-3-yl)-[3,4′-bipyridine]-5-carboxamide] | < 10 | +++ (+++=>500) | < 10 | 100 to 1000 | – |
| Cc1cc(F)cc(-c2cncc(C(=O)NC(C)C3CC3)c2N2CC[C@](C)(N)C2)c1 (stereo partly drawn) [1-24, 4-[(3S)-3-amino-3-methylpyrrolidin-1-yl]-N-(1-cyclopropylethyl)-5-(3-fluoro-5-methylphenyl)pyridine-3-carboxamide] | < 10 | +++ (+++=>500) | < 10 | 10 to 100 | – |
| COc1ncc(C(=O)N[C@@H](C)C2CC2)c(N2CC[C@H](N)C2)c1-c1cc(F)cc(Cl)c1 [1-282, 4-[(3S)-3-aminopyrrolidin-1-yl]-5-(3-chloro-5-fluorophenyl)-N-[(1S)-1-cyclopropylethyl]-6-methoxypyridine-3-carboxamide] | < 10 | +++ (+++=>500) | < 10 | 100 to 1000 | – |
| C[C@H](NC(=O)c1cnc(C#N)c(-c2cc(F)cc(F)c2)c1N1CC[C@](C)(N)C1)c1ccccn1 [1-103, 4-[(3S)-3-amino-3-methylpyrrolidin-1-yl]-6-cyano-5-(3,5-difluorophenyl)-N-[(1S)-1-(pyridin-2-yl)ethyl]pyridine-3-carboxamide] | < 10 | +++ (+++=>500) | < 10 | > 1000 | – |
| C[C@H](NC(=O)c1cnc(OCc2ccccc2)c(-c2cc(F)cc(F)c2)c1N1CC[C@](C)(N)C1)C1CC1 [1-267, 4-[(3S)-3-amino-3-methylpyrrolidin-1-yl]-6-(benzyloxy)-N-[(1S)-1-cyclopropylethyl]-5-(3,5-difluorophenyl)pyridine-3-carboxamide] | < 10 | +++ (+++=>500) | < 10 | 100 to 1000 | – |
| Cc1ncc(C(=O)NC2CCCCC2)c(N2CC[C@](C)(N)C2)c1-c1ccnc(C(F)(F)F)c1 [1-257, 4-[(3S)-3-amino-3-methylpyrrolidin-1-yl]-N-cyclohexyl-2-methyl-2′-(trifluoromethyl)-[3,4′-bipyridine]-5-carboxamide] | < 10 | +++ (+++=>500) | < 10 | > 1000 | – |
| COc1ncc(C(=O)N[C@@H](C)C2CC2)c(N2CC[C@](C)(N)C2)c1-c1cc(F)cc(Cl)c1 [1-229, 4-[(3S)-3-amino-3-methylpyrrolidin-1-yl]-5-(3-chloro-5-fluorophenyl)-N-[(1S)-1-cyclopropylethyl]-6-methoxypyridine-3-carboxamide] | < 10 | +++ (+++=>500) | < 10 | 10 to 100 | – |
